This data set can be described thus: recombinant barcode read abundance after kanamycin selection (control-corrected) (log10(CPM+1)); higher = more efficient recombination; sequences stand for … in AGTGCAGAGAAAATCGGCCAGTTTTCTCTGCCTGCAGTCCGCATGCCGT…AGATTTATGCAGCGGACTGCCTTTCTCCCAAAGTGATAAACCGGACAGTATCATGGACCGGTTTTCCCGGTAATCCGTATTTGCAAGGTTGGTTTCACT; site = the 11-nt target. In outline:
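Oligos holding a promoter, target, barcode and the J23119-driven first 104 bases of the bridge RNA were Gibson-cloned into a vector that supplied the other 73 bp plus a T7-inducible recombinase. This library was co-electroporated with a donor plasmid into E. coli. Two replicates went on chloramphenicol/ampicillin LB agar (control) and two on chloramphenicol/ampicillin/kanamycin with 0.1 mM IPTG. Recombination efficiency is read from averaged, control-corrected barcode counts per million at recombinant junctions, reported as log10(CPM+1).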
For “TCGTGCGCTTGGGTTCTAACCTGTTGCCT (site TCGTGCCCTAG)”, the “recombinant barcode read abundance (log10)” value came to 0.087.
The value for “TCGTGCGCTTGGGTTCTAACCTGTTGCCT (site TCGTGCGCTAG)” was 0.0883; that for “TCGTGCGCTTGGGTTCTAACCTGTTGCCT (site TCGTGCTCTAG)” was 0; that for “TCGTGTTCTTGGGTTCTAACCTGTTGCTA (site CCTTGTTCTTA)” was 0.0623.
Take “TCGTGTTCTTGGGTTCTAACCTGTTGCTA (site TCGTGTTCTTA)”: the “recombinant barcode read abundance (log10)” value came out at 0.0576.
For “TCGTTCGCTTGGGTTCTAACCTGTTGCCT (site TCCTTCACTAG)”, the “recombinant barcode read abundance (log10)” value came out at 0.0905.
“TCGTTCGCTTGGGTTCTAACCTGTTGCCT (site TCGTTCGCTAG)”: the “recombinant barcode read abundance (log10)” value came out at 0.21.
Regarding “TCTAAGTCTTGGGTTCTAACCTGTTGCCC (site TCTAAGTCTAG)”, the “recombinant barcode read abundance (log10)” value was 0.132.
The figure for “TCTAAGTCTTGGGTTCTAACCTGTTGCCC (site TCTAAGTCTCG)” is 0.0902; for “TCTAAGTCTTGGGTTCTAACCTGTTGCCC (site TCTAAGTCTGG)” it is 0.194; for “TCTAAGTCTTGGGTTCTAACCTGTTGCCC (site TCTAAGTCTTG)” it is 0.00905.
As for “TCTAAGTCTTGGGTTCTAACCTGTTGCCT (site TCTAAGTCTAG)”, the “recombinant barcode read abundance (log10)” value worked out at 0.134.
The figure for “TCTAAGTCTTGGGTTCTAACCTGTTGCCT (site TCTAAGTCTCG)” is 0.132; for “TCTAAGTCTTGGGTTCTAACCTGTTGCCT (site TCTAAGTCTGG)” it is 0.172.
The value for “TCTAAGTCTTGGGTTCTAACCTGTTGCCT (site TCTAAGTCTTG)” was 0.281.
For the sequence “TCTAGATCTTGGGTTCTAACCTGTTGCCT (site TCTAGAACTAG)”, the “recombinant barcode read abundance (log10)” value is 0.0897.
The figure for “TCTAGATCTTGGGTTCTAACCTGTTGCCT (site TCTAGACCTAG)” is 0.0764; for “TCTAGATCTTGGGTTCTAACCTGTTGCCT (site TCTAGAGCTAG)” it is 0.135.
In the case of “TCTAGATCTTGGGTTCTAACCTGTTGCCT (site TCTAGATCTAG)”, the “recombinant barcode read abundance (log10)” value is 0.0616.
The figure for “TCTATCCCTTGGGTTCTAACCTGTTGCCT (site TCAATCCCTAG)” is 0.113; for “TCTATCCCTTGGGTTCTAACCTGTTGCCT (site TCCATCCCTAG)” it is 0.105.
On to “TCTATCCCTTGGGTTCTAACCTGTTGCCT (site TCGATCCCTAG)”, for which the “recombinant barcode read abundance (log10)” value turned out to be 0.0408.
The figure for “TCTATCCCTTGGGTTCTAACCTGTTGCCT (site TCTATCCCTAG)” is 0.203; for “TCTATGACTTGGGTTCTAACCTGTTGCCT (site TCTATGACTAG)” it is 0.0099; for “TCTATGACTTGGGTTCTAACCTGTTGCCT (site TCTATGTCTAG)” it is 0.187.
As for “TCTCAGCCTTGGGTTCTAACCTGTTGCCT (site TCTCAGCCTAG)”, the “recombinant barcode read abundance (log10)” value amounted to 0.453.
With “TCTCAGCCTTGGGTTCTAACCTGTTGCCT (site TCTCCGCCTAG)”, the “recombinant barcode read abundance (log10)” value stood at 0.0825.
The value for “TCTCAGCCTTGGGTTCTAACCTGTTGCCT (site TCTCGGCCTAG)” was 0.291; that for “TCTCAGCCTTGGGTTCTAACCTGTTGCCT (site TCTCTGCCTAG)” was 0.0307.
The value for “TCTGAAACTTGGGTTCTAACCTGTTGCCT (site TCCGAAACTAT)” was 0.12; that for “TCTGAAACTTGGGTTCTAACCTGTTGCCT (site TCTGAAACTAG)” was 0.413.
The value for “TCTGGGCCTTGGGTTCTAACCTGTTGCTT (site TCTGGGCCTAA)” was 0.0924; that for “TCTGGGCCTTGGGTTCTAACCTGTTGCTT (site TCTGGGCCTTA)” was 0.525.
Regarding “TCTGGGGCTTGGGTTCTAACCTGTTGCAG (site TCTGGGGCTCA)”, the “recombinant barcode read abundance (log10)” value came out at 0.686.
In the case of “TCTGGGGCTTGGGTTCTAACCTGTTGCAG (site TCTGGGGCTCC)”, the “recombinant barcode read abundance (log10)” value was 0.189.
Regarding “TCTGGGGCTTGGGTTCTAACCTGTTGCAG (site TCTGGGGCTCG)”, the “recombinant barcode read abundance (log10)” value was 0.159.
The figure for “TCTGGGGCTTGGGTTCTAACCTGTTGCAG (site TCTGGGGCTCT)” is 2.15.
For the sequence “TCTGTCTCTTGGGTTCTAACCTGTTGCCT (site TCTGTCTCTAG)”, the “recombinant barcode read abundance (log10)” value is 2.03.
The figure for “TCTGTCTCTTGGGTTCTAACCTGTTGCCT (site TGTGTCTCTAC)” is 0.0569.
As for “TCTTGGACTTGGGTTCTAACCTGTTGCTA (site TCTTGGACTAA)”, the “recombinant barcode read abundance (log10)” value was determined as 0.214.
The value for “TCTTGGACTTGGGTTCTAACCTGTTGCTA (site TCTTGGACTCA)” was 0.0354; that for “TCTTGGACTTGGGTTCTAACCTGTTGCTA (site TCTTGGACTGA)” was 0.0809.
The value for “TCTTGGACTTGGGTTCTAACCTGTTGCTA (site TCTTGGACTTA)” was 0.0613; that for “TGAAAGTCTTGGGTTCTAACCTGTTGCCT (site TGAAAGTCTAG)” was 0.727; that for “TGAAAGTCTTGGGTTCTAACCTGTTGCCT (site TGAACGTCTAG)” was 0.0267.
Take “TGAAAGTCTTGGGTTCTAACCTGTTGCCT (site TGAAGGTCTAG)”: the “recombinant barcode read abundance (log10)” value came out at 0.15.
The value for “TGAAAGTCTTGGGTTCTAACCTGTTGCCT (site TGAATGTCTAG)” was 0.0411.
For “TGAACTCCTTGGGTTCTAACCTGTTGCCT (site GTAACTCCTAG)”, the “recombinant barcode read abundance (log10)” value stood at 0.118.
The value for “TGAACTCCTTGGGTTCTAACCTGTTGCCT (site TGAACTCCTAG)” was 0.122; that for “TGACATTCTTGGGTTCTAACCTGTTGCTT (site GGACATTCTAA)” was 0.139.
Regarding “TGACATTCTTGGGTTCTAACCTGTTGCTT (site TGACATTCTAA)”, the “recombinant barcode read abundance (log10)” value is 0.13.
Consider “TGAGACACTTGGGTTCTAACCTGTTGCTG (site TGACACACTCA)”, for which the “recombinant barcode read abundance (log10)” value is 0.0729.
Regarding “TGAGACACTTGGGTTCTAACCTGTTGCTG (site TGAGACACTCA)”, the “recombinant barcode read abundance (log10)” value came to 2.68.
The figure for “TGAGACTCTTGGGTTCTAACCTGTTGCCT (site TGAGACTCTAG)” is 2.2.
The figure for “TGAGACTCTTGGGTTCTAACCTGTTGCCT (site TGCGACTCTAG)” is 0.0734.
Consider “TGAGACTCTTGGGTTCTAACCTGTTGCCT (site TGGGACTCTAG)”, for which the “recombinant barcode read abundance (log10)” value came out at 0.198.
As to “TGAGACTCTTGGGTTCTAACCTGTTGCCT (site TGTGACTCTAG)”, the “recombinant barcode read abundance (log10)” value came out at 0.463.
The value for “TGAGCTACTTGGGTTCTAACCTGTTGCAC (site TGAGCTACTGT)” was 1.16.
For the sequence “TGAGCTACTTGGGTTCTAACCTGTTGCAC (site TGTGCGACTGT)”, the “recombinant barcode read abundance (log10)” value amounted to 0.0102.
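Further: IS621 recombinase and bridge RNA in Escherichia coli cells.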
